Entries after “also recorded” stand apart in the source; their conditions may differ.
What was measured:
[1] = Diffusion-Ordered NMR Spectroscopy (DOSY): diffusion coefficient and residence time within cyclodextrin; type: physicochemical; settings: for residency time within 2-hydroxy-propyl-β-cyclodextrin: inferred from DOSY NMR diffusion, Formulations 1 and 2 and spiked ratios 1:4:1 / 1:4:1:1
Protocol: The interaction between cyclodextrin and menthol and cyclodextrin and nicotine (unprotonated and monoprotonated) was assessed using NMR spectroscopy. The study was conducted on formulations containing
Formulation 1-90.0% (w/w) water, 0.9% (w/w) 1-menthol, 9% (w/w) 2-hydroxy-propyl-β-cyclodextrin, and 0.1% (w/w) nicotine.
Formulation 2-89.9% (w/w) water, 0.9% (w/w) 1-menthol, 9% (w/w) 2-hydroxy-propyl-β-cyclodextrin, 0.1% (w/w) nicotine and 0.1% (w/w) citric acid.
During the NMR studies the assessment of the diffusion coefficient and subsequent residence times of monoprotonated nicotine, unprotonated nicotine, menthol within 2-hydroxy-propyl-β-cyclodextrin. The diffusion coefficient and subsequent residence times were studied as they are understood to provide a qualitative assessment of the degree of interaction of the compound with the complexing agent with each of the components studied. It is understood that encapsulation is not a static state but a dynamic one in which materials are encapsulated (e.g. complexed or bound to an encapsulating agent) for a period of time before release after which they may be subsequently encapsulated. Therefore, decreased residence time indicates decreased interaction with the complexing agent.
Diffusion-Ordered NMR Spectroscopy (DOSY) experiments were selected as suitable for assessment of diffusion times of nicotine and menthol solutions of individual constituents, in the formulation describe above and formulations with spike components to vary the ratios of constituents (nicotine: 2-hydroxy-propyl-β-cyclodextrin:menthol=1:4:1 and nicotine: 2-hydroxy-propyl-β-cyclodextrin:menthol:citric acid=1:4:1:1 molar ratios).

[2] = compared to base cyclodextrins such as β-cyclodextrin; cited from earlier work
[3] = nicotinium citrate gel added in place of nicotine; no heating or filtration steps

**Q.** Which “residency time within 2-hydroxy-propyl-β-cyclodextrin” value [1] does the source give for `CC1CCC(C(C)C)C(O)C1` (stereo not drawn) [menthol] here?
**A.** Its value is “higher than that of nicotine in both its monoprotonated and unprotonated form; also recorded: mono-protonated nicotine<unprotonated nicotine<menthol”.

**Q.** Which diffusion coefficient ([1]; DOSY NMR, aqueous formulation with menthol and 2-hydroxy-propyl-β-cyclodextrin, with vs without citric acid) does the source give for `CN1CCC[C@H]1c1cccnc1` [monoprotonated nicotine] here?
**A.** The diffusion coefficient was “faster diffusion coefficient compared to the nicotine without citric acid”.

**Q.** And the “residency time within 2-hydroxy-propyl-β-cyclodextrin” value ([1]; listed as mono-protonated nicotine)?
**A.** The value was “mono-protonated nicotine<unprotonated nicotine<menthol”.

**Q.** Which “residency time within 2-hydroxy-propyl-β-cyclodextrin” value [1] does the source give for `CN1CCC[C@H]1c1cccnc1` [unprotonated nicotine] here?
**A.** Its value is “higher residence within 2-hydroxy-propyl-β-cyclodextrin than mono-protonated nicotine; also recorded: mono-protonated nicotine<unprotonated nicotine<menthol”.

**Q.** For 2-hydroxy-propyl-β-cyclodextrin, which solubility in water [2] is on record?
**A.** The solubility in water was “increased solubility in water”.

**Q.** Which “visual precipitate in formulation” value [3] does the source give for `CN1CCCC1c1cccnc1.O=C(O)CC(O)(CC(=O)O)C(=O)O` [nicotinium citrate] here?
**A.** The value was “lack of any visual precipitate”.

— US12478090B2, “Aerosolizable formulation” (NICOVENTURES TRADING LIMITED, priority 2018, dated 2025)
